Measured values as given in patent US3947411A, “Novel 1-aryl-2-arylalkyl-3-or-4-[4'-(substituted-alkyl)piperazino-1']butanols- 2-or-butenes-1, and methods of manufacture thereof” (Warner-Lambert Company, priority 1972, dated 1976).
≈ marks a conversion by molar mass, not a printed value.

Tests used:
Aspergillus niger = assay: Agar well inhibition zone test against fungi, Aspergillus niger (Table II); conditions: quantity per well giving inhibition zone (500, 50, 5 μg tested); Sabouraud agar, 28°, 48 hours
Staphylococcus aureus = assay: Agar well inhibition zone test against bacteria, Staphylococcus aureus (Table III); conditions: quantity per well giving inhibition zone (500, 50, 5 μg tested); nutrient agar, 37°, 24 hours
C. albicans [1] = assay: Minimum inhibitory concentration for fungi in presence of serum, C. albicans (Table VI); format: cell-based; conditions: Candida albicans; Sabouraud nutrient broth + 10% bovine serum, 28°C, 48 hours
Candida albicans = assay: Agar well inhibition zone test against fungi, Candida albicans (Table II); conditions: quantity per well giving inhibition zone (500, 50, 5 μg tested); Sabouraud agar, 28°, 48 hours
Description: The efficacy of the compounds against fungi was tested as follows:
The test organisms, in this case the blastomycete Candida albicans and the mold Aspergillus niger, were inoculated onto Sabouraud agar plates by pouring a photometrically adjusted standard suspension of organisms on the plate. After inoculation, wells with a diameter of 5.0 mm were punched in the agar, and filled with 50 ul of the compound solution mentioned before. The quantity of compound applied thus amounted to 500 μg, 50 μg and 5 μg. After incubation at 28° for 48 hours, the quantity of compound was determined at which an inhibition of the organism's growth, in form of an inhibition zone around the corresponding well, was present.

Solubility in water = format: physicochemical; conditions: hydrochlorides or oxalates, read-out: solubilities (in water)
Description: The following list contains examples of those compounds which are made according to the methods disclosed. (The individual compounds are identified by elementary analyses and infrared spectra, by ultra-violet or nuclear resonance spectra, if necessary.) Individual melting points and solubilities (in water) are also given as is the method by which each compound is prepared.
The melting points and solubilities are given for the Hydrochlorides I - XVI; XVIII - XXVII; XXIX - XXXV; XXXVII - XLII; XLIV - LXII; LXIV - LXVII, and the Oxalates XVII; […]; XXXVI; LXIII.

C. albicans [2] = assay: Minimum inhibitory concentration for fungi, tube dilution, C. albicans (Table IV); conditions: Candida albicans, 48 h, read-out: Minimum Inhibitory Concentration, C. albicans
Description: (§1) A tube dilution series of the respective compound in Sabouraud nutrient broth, whose individual tubes contained concentrations of 1024 μg, 512 μg, 256 μg, 128 μg, 64 μg, 32 μg, 16 μg, 8 μg, 4 μg, 2 μg, 1.1 μg and 0.5 μg/ml, was prepared and inoculated with a photometrically standardized suspension of the test organisms or the spores thereof.

Escherichia coli = assay: Agar well inhibition zone test against bacteria, Escherichia coli (Table III); conditions: quantity per well giving inhibition zone (500, 50, 5 μg tested); nutrient agar, 37°, 24 hours
Description: The efficacy of the compounds against bacteria was tested as follows:
The test organisms, in this case Staphylococcus aureus and Escherichia coli, were inoculated on nutrient agar as described in Example 12, wells were punched, and the solutions of the compounds were transferred to fill the wells. The quantity of compound in the wells amounted again to 500 μg, 50 μg and 5 μg.
After incubation a 37° for 24 hours the quantity of compound was determined at which an inhibition of the organism's growth, in the form of an inhibition zone around the corresponding well, occurred.

A. niger [3] = assay: Minimum inhibitory concentration for fungi, tube dilution, A. niger (Table IV); conditions: Aspergillus niger, 48 h, read-out: Minimum Inhibitory Concentration, A. niger
Description: as §1

Staph. aureus = assay: Minimum inhibitory concentration for bacteria, tube dilution, Staph. aureus (Table V); conditions: Staphylococcus aureus, 48 h, read-out: Minimum Inhibitory Concentration, Staph. aureus
Description: A tube dilution series of the respective compound in nutrient broth whose individual tubes contained concentrations of 1024 μg, 512 μg, 256 μg, 128 μg, 64 μg, 32 μg, 1 μg, 8 μg, 4 μg, 2 μg, 1.1 μg and 0.5 μg/ml was prepared and inoculated with a photometrically standardized suspension of the test organisms.

A. niger [4] = assay: Minimum inhibitory concentration for fungi in presence of serum, A. niger (Table VI); format: cell-based; conditions: Aspergillus niger; Sabouraud nutrient broth + 10% bovine serum, 28°C, 48 hours

| SMILES | Inhibition Area at μg, Asp. niger (Aspergillus niger) [µg] | Inhibition Area at μg, Staph. aureus (Staphylococcus aureus) [µg] | MIC (C. albicans [1]) [µg/mL] | Inhibition Area at μg, Cand. albicans (Candida albicans) [µg] | solubility (Solubility in water) [mg/mL] | MIC (C. albicans [2]) [µg/mL] | Inhibition Area at μg, E. coli (Escherichia coli) [µg] | MIC (A. niger [3]) [µg/mL] | MIC (Staph. aureus) [µg/mL] | MIC (A. niger [4]) [µg/mL] |
| --- | --- | --- | --- | --- | --- | --- | --- | --- | --- | --- |
| CC(N1CCN(CCN(C)C)CC1)C(O)(Cc1ccccc1)Cc1ccccc1 (stereo not drawn) [Compound I, 1-phenyl-2-benzyl-3-[4'-(β-dimethylamino-ethyl)-piperazino-1']-butanol-2] | 50 | 500 | 64 | 50 | 100 (≈ 253 mM) | 64 (≈ 0.162 mM) | 500 | 128 (≈ 0.324 mM) |  |  |
| CC(N1CCN(C)CC1)C(O)(Cc1ccccc1)Cc1ccccc1 (stereo not shown) [LI, 1-phenyl-2-benzyl-3-[1'-methyl-piperazino-4'-]-butanol-2] | 50 | 500 |  | 50 | 200 (≈ 591 mM) | 256 (≈ 0.756 mM) | 500 | 256 (≈ 0.756 mM) |  |  |
| CCN(CCN1CCN(C(C)C(O)(Cc2ccccc2)Cc2ccccc2)CC1)Cc1ccccc1 (stereo not drawn) [XVII, 1-phenyl-2-benzyl-3-[4'-(β-N-ethyl-N-benzyl-aminoethyl)-piperazino-1']-butanol-2] | 500 | > 500 |  | 500 | 100 (≈ 206 mM) |  | > 500 |  |  |  |
| CC(N1CCN(CCN2CCN(c3ccccc3)CC2)CC1)C(O)(Cc1ccccc1)Cc1ccccc1 (stereo not drawn) [XI, 1-phenyl-2-benzyl-3-{4'-[β-(4"-phenyl-piperazino-1")-ethyl]-piperazino-1'}-butanol-2] | 500 | 50 |  | 50 | 50 (≈ 97.5 mM) | > 1020 | > 500 |  | > 1020 |  |
| CC(N1CCN(CCN(Cc2ccccc2)Cc2ccccc2)CC1)C(O)(Cc1ccccc1)Cc1ccccc1 (stereo not drawn) [XVI, 1-phenyl-2-benzyl-3-[4'-(β-dibenzylamino-ethyl)-piperazino-1']-butanol-2] | > 500 | > 500 |  | > 500 | 50 (≈ 91.3 mM) |  | > 500 |  |  |  |
| Cc1cccc(CN2CCN(C(C)C(O)(Cc3ccccc3)Cc3ccccc3)CC2)c1 (stereo not shown) [LIV, 1-phenyl-2-benzyl-3-(4'-m-methyl-benzyl-piperazino-1')-butanol-2] | > 500 | > 500 |  | > 500 | 10 (≈ 23.3 mM) |  | > 500 |  |  |  |
| CC(N1CCN(CCO)CC1)C(O)(Cc1ccccc1)Cc1ccccc1 (stereo not drawn) [XLVI, 1-phenyl-2-benzyl-3-[4'-(β-hydroxyethyl)-piperazino-1']-butanol-2] | 500 | 500 |  | 500 | 100 (≈ 271 mM) |  | > 500 |  |  |  |
| CCN(CC)CCN1CCN(C(C)C(O)(Cc2ccccc2)Cc2ccccc2)CC1 (stereo not drawn) [II, 1-phenyl-2-benzyl-3-[4'-(β-diethylaminoethyl)-piperazino-1']-butanol-2] | 50 | 500 |  | 50 | 50 (≈ 118 mM) | 1020 (≈ 2.42 mM) | 500 | 512 (≈ 1.21 mM) |  |  |
| OC(Cc1ccccc1)(Cc1ccccc1)CN1CCN(CCN2CCCCC2)CC1 [LIX, β,β '-diphenyl-β"-[4'-(β-piperidino-ethyl)-piperazino-1']-t-butanol] | 5 | 50 |  | 500 | 100 (≈ 237 mM) |  | 500 | 64 (≈ 0.152 mM) | 1020 (≈ 2.43 mM) | 64 |
| CC1CCCN(CCN2CCN(C(C)C(=Cc3ccccc3)Cc3ccccc3)CC2)C1 (stereo not drawn) [XXXIV, 1-phenyl-2-benzyl-3-{4'-[β-(3"-methylpiperidino)-ethyl]-piperazino-1'}-butene-1] | 50 | 50 |  | 50 | 25 (≈ 57.9 mM) | 16 (≈ 0.0371 mM) | 500 | 32 (≈ 0.0741 mM) | 128 (≈ 0.297 mM) |  |
| OC(CCN1CCN(c2ccccc2)CC1)(Cc1ccccc1)Cc1ccccc1 [LVII, 1-phenyl-2-benzyl-4-(4'-phenyl-piperazino-1')-butanol-2] | > 500 | > 500 |  | > 500 | < 10 |  | 500 |  |  |  |
| CN1CCN(CCCCCCN2CCN(CCC(O)(Cc3ccccc3)Cc3ccccc3)CC2)CC1 [LXI, 1-phenyl-2-benzyl-4-{4'-[w-(4"-methyl-piperazino-1")-n-hexyl]-piperazino-1'}-butanol-2] | > 500 | > 500 |  | > 500 | 100 (≈ 197 mM) |  | > 500 |  |  |  |
| CC(N1CCN(Cc2ccccc2)CC1)C(O)(Cc1ccccc1)Cc1ccccc1 (stereo not shown) [LIII, 1-phenyl-2-benzyl-3-(4'-benzyl-piperazino-1')-butanol-2] | > 500 | > 500 |  | > 500 | 10 (≈ 24.1 mM) |  | > 500 |  |  |  |
| CN1CCN(CCC(O)(Cc2ccccc2)Cc2ccccc2)CC1 [LVI, 1-phenyl-2-benzyl-4-(4'-methyl-piperazino-1')-butanol-2] | 500 | 500 |  | 500 | 10 (≈ 29.5 mM) |  | 500 |  |  |  |
| CC(C(=Cc1ccccc1)Cc1ccccc1)N1CCN(CCN2CCN(Cc3ccccc3)CC2)CC1 (stereo not drawn) [XXXVII, 1-phenyl-2-benzyl-3-{4'-[β-(4"-benzylpiperazino-1")-ethyl]-piperazino-1'}-butene-1] | 5 | 5 | 512 | 5 | 50 (≈ 98.3 mM) | 8 (≈ 0.0157 mM) | 500 | 128 (≈ 0.252 mM) | 16 (≈ 0.0314 mM) |  |
| CC(N1CCN(CCN(C)c2ccccc2)CC1)C(O)(Cc1ccccc1)Cc1ccccc1 (stereo not drawn) [XVIII, 1-phenyl-2-benzyl-3-[4'-(β-N-phenyl-N-methyl-aminoethyl)-piperazino-1']-butanol-2] | > 500 | > 500 |  | > 500 | 10 (≈ 21.9 mM) |  | > 500 |  |  |  |
| CC(C(=Cc1ccccc1)Cc1ccccc1)N1CCN(CCCl)CC1 (stereo not drawn) [XLIV, 1-phenyl-2-benzyl-3-(4'-β-chloro-ethyl-piperazino-1')-butene-1] | 50 | 500 |  | 50 | 10 (≈ 27.1 mM) | > 1020 | 500 | > 1020 |  |  |
| CC(C(=Cc1ccccc1)Cc1ccccc1)N1CCN(CCN2CCOCC2)CC1 (stereo not drawn) [XXXI, 1-phenyl-2-benzyl-3-[4'-(β-morpholino-ethyl)-piperazino-1']-butene-1] | 50 | 50 |  | 500 | 100 (≈ 238 mM) |  | > 500 | 64 (≈ 0.153 mM) | 128 (≈ 0.305 mM) |  |
| CC(N1CCN(c2ccccc2)CC1)C(O)(Cc1ccccc1)Cc1ccccc1 (stereo not shown) [LII, 1-phenyl-2-benzyl-3-(4'-phenyl-piperazino-1')-butanol-2] | > 500 | > 500 |  | > 500 | < 10 |  | > 500 |  |  |  |
| OC(CCN1CCN(CCN2CCCCC2)CC1)(Cc1ccccc1)Cc1ccccc1 [LX, 1-phenyl-2-benzyl-4-[4'-(β-piperidinoethyl)-piperazino-1']-butanol-2] | 50 | 500 |  | 500 | 100 (≈ 230 mM) |  | 500 | 64 (≈ 0.147 mM) |  | 8 |
| CN1CCN(CC(O)(Cc2ccccc2)Cc2ccccc2)CC1 [LV, 1-phenyl-2-benzyl-3-(4'-methyl-piperazino-1')-propanol-2] | > 500 | > 500 |  | > 500 | < 10 |  | > 500 |  |  |  |
